The test system of experiment [1] is dendritic cells. As to the kind of experiment: CCL22 production by dendritic cells (ELISA). The experiment is classed as cell-based, murine. Conditions: LPS-matured DCs, soluble VIP. As to the method: Dendritic cells were isolated from murine bone marrow and cultured following standard procedures.
(§1) In the first two experiments, both GM-CSF and IL-4 were added to DC media (modified RPMI 1640) of bone marrow cell cultures during media changes on Days 0, 3 and 6. In the third experiment, the IL-4 was purposely omitted and GM-CSF was added in 5× concentration. On Day 6, CD11c+ DC cells were isolated using MACS cell sorting beads and plated in a 24-well plate at 100,000 cells/well. Five different groups of four wells each were analyzed and received treatment. […] A mature DC control group received only LPS. Three different groups were matured with LPS and received different concentrations of either soluble VIP or releasates of VIP microparticles or blank microparticles (using the 12.6 kDa polymer).
Dose Response Protocol: Soluble VIP was added in concentrations of 10^−6 M, 10^−8 M, and 10^−9 M to both immature DC groups and DCs matured with LPS. Twelve different groups were matured with LPS and received different concentrations of either blank porous, blank nonporous, VIP porous, or VIP nonporous microparticles (of the 12.6 kDa polymer). Microparticles were added in concentrations of either 2.77 mg/mL, 1.39 mg/mL, and 0.277 mg/mL. In a second DC culture, the low concentration of microparticles was reduced to 0.0556 mg/mL. […]
A general note: In an ELISA, binding on a coated surface is turned into a signal by an enzyme label.

In experiment [2] the test system is FoxP3+CD4+ T-cells. As to the kind of experiment: Chemotaxis of CD4+ T-cells through transwells toward treated DCs, FoxP3+ by flow cytometry. In kind it is cell-based, mouse. The settings on record: LPS. As to the method: as §1
Preliminary Protocol: Soluble VIP was added to the third group in concentration of 2.5×10^−8 M. Ten milligrams of microparticles were first incubated for 4-6 hours in media and 250 μL of releasates were added to each well. […]
For chemotaxis studies, in the first two experiments, both GM-CSF and IL-4 were added to DC media (modified RPMI 1640) of bone marrow cell cultures during media changes on Days 0, 3 and 6. […] Five different groups of four wells each were analyzed and received treatment. […]
CD4+ T-cells were isolated from the spleen and lymph nodes of a mouse using Dynal beads following the lab protocol. […] T Cells that flowed through were analyzed for FoxP3+ expression using flow cytometry.
For orientation: A flow cytometer gives signals particle by particle.

The test system of experiment [3] is mice infected with A. actinomycetemcomitans (periodontitis). Put plainly: Mouse periodontitis model with CCL-22 microparticles / systemic VIP, alveolar bone resorption and Treg recruitment. In kind it is in vivo.
Experimental: To this end, B6 mice (n=6) were infected orally with the periodontal pathogen A. actinomycetemcomitans (Aa) and treated with microparticles containing CCL-22 (CCL-22MPs) or empty microparticles (BlankMPs) according to the schedule outlined above. Additionally vasoactive intestinal peptide (VIP) was administered intraperitoneally. Mice receiving only PBS and the thickener carboxymethyl cellulose served as controls (Untreated). Experimental treatments were administered in the periodontal pocket of the right maxilla while left maxillae were used as internal negative controls in each mouse. Alveolar bone loss was quantified as the area between the cementoenamel junction (CEJ) and the alveolar bone crest (ABC) FIG. 23, CEJ and FIG. 23A, ABC). Alveolar bone levels are shown on the left (internal control, FIG. 23A LEFT) and right (BlankMP treated, FIG. 23A RIGHT) maxilla.
The test system of experiment [4] is FoxP3, IL-10, RANKL, CCL-22 mRNA in periodontal tissues. Put plainly: Real-time PCR of markers in periodontal tissues of diseased mice. Conditions: systemic injections at days −1, 7, 14, 21, 28. The experiment is classed as in vivo, mouse. How it is done:
To verify that Tregs are recruited toward microparticles that sustain release of CCL-22, formulations were administered into the periodontium of diseased mice. Briefly, mice were orally exposed to the periodontal pathogen A. actinomycetemcomitans (Aar) on day 0, and also received CCL-22 microparticles (CCL-22MPs) or blank (empty) microparticles (BlankMPs) in their periodontal pockets. Specifically, mice received microparticle injections at day −1, 10 and 20, mice treated with VIP injections received systemic injections at days −1, 7, 14, 21, 28. Untreated mice served as negative controls. At day 30, all mice were sacrificed and maxilla's were resected. […] FIG. 22A. […] Figure BIB. […] FIG. 22C.
In this experiment, artificial antigen presenting cells providing a CCL-22 controlled release formulation were injected into palatal gingival tissue of right molars of mice (n=3) at the times of −1, 10 and 20 days of periodontal infection. At 30 days, total RNA was extracted from periodontal tissues as previously described and analyzed for regulatory T-cell and periodontal disease factor. […]
Real-Time PCR Analysis. […] RealTime-PCR quantitative mRNA analyses will be done in a MiniOpticon system (BioRad, Hercules, CA), using SybrGreen Master Mix (Invitrogen), 100 nM specific primers, and 2.5 ng of cDNA in each reaction. […]
On the technique in general: Quantitative PCR measures a nucleic acid by following its amplification.

The subject of experiment [5] is CD4+ T cells (CCR4). Put plainly: In vitro transwell migration assay toward CCL22. The experiment is classed as cell-based, murine. Conditions: activated vs naïve CD4+ T cells. From the text:
(* p<0.05, one-tailed Students ‘t’ test).
Simultaneously, the ability of CCL22 to attract murine T cells was examined. Expression of chemokine receptors for CCL22 (i.e., for example, the CCR4 receptor) are known to control the ability of cells to respond to CCL22 gradients. Moreover, there is evidence that only activated T cells express the CCR4 receptor. Baatar et al., Journal of Immunology 178: 4891-4900 (2007); Lim et al., Journal of Immunology 177:840-851 (2006); and Lee et al., Journal of Experimental Medicine 201:1037-1044 (2005); and FIG. 18A. […] FIG. 18B.

“Also recorded” adds a separate entry of the source. Ends that are not written are not given here.

As for “vasoactive intestinal peptide (HSDAVFTDNYTRLRKQMAVKKYLNSILN; ends and bridges not checked; UniProt P01282 125-152, looked up) [VIP, neuropeptide of twenty-eight (28) amino acids in length originally isolated from the intestine]”, the “CCL-22 production relative to mature DC control group” value in experiment [1] is “similar”. The “percent of FoxP3+ cells recruited by DCs” value in experiment [2] (DC precursors cultured with IL-4 and GM-CSF, soluble VIP 2.5×10^−8 M or releasates) is on record as “recruited a higher percentage of FoxP3+ cells than DCs that only received LPS or releasates from blank particles”; in experiment [2] (absence of IL-4, 5× GM-CSF) it was “recruited the same percentage of FoxP3+ cells”. The “alveolar bone resorption / bone loss” value in experiment [3] (MPs at day −1, 10, 20, VIP systemic IP, day 30, vs BlankMPs / negative controls) is reported as “significantly less alveolar bone resorption than BlankMPs”. In experiment [3] (mouse, in vivo), the “Treg (FoxP3+ cell) recruitment to gingival / periodontal tissues” value is listed as “effectively induce Treg migration to periodontal tissues”. Besides, in experiment [4], the “endogenous CCL-22 production” value is listed as “induced endogenous production of CCL-22”.

B1: CCL22: chemokine that binds the CCR4 receptor, involved in migration of regulatory T-cells (protein, UniProt O00626 25-93, looked up)
C-C motif chemokine 22: GPYGANMEDSVCCRDYVRYRLPLRVVKHFYWTSDSCPRPGVVLLTFRDKEICADPRVPWVKMILNKLSQ
B1: in experiment [5], the “T cell migration towards a CCL22 gradient” value was “significantly greater migration of activated regulatory and effector CD4+ T cells; also recorded: activated T cells (both regulatory and effector cell populations), but not naïve T cells, migrated towards a CCL22 gradient”.

These data come from patent publication US12397041B2, “Vasoactive intestinal peptide release from microparticles” (UNIVERSITY OF PITTSBURGH—OF THE COMMONWEALTH SYSTEM OF …, priority 2009, dated 2025).
